Data reported in patent US20180235213A1, “PLANT HORMONE APPLICATION” (The State of Israel Ministry of Agriculture & Rural …, priority 2015, published 2018).

Tested on: Pomegranate
Assay: EGO10 collar application to pomegranate in commercial nursery
Type: in vivo, Punica granatum
Conditions: 50 μM as collar in Eppendorf tubes
Description: Two replicates on experiments were performed in commercial nursery.

CC1=C[C@H](O/C=C2\Cc3c(n(C)c4ccccc34)C2=O)OC1=O [EGO10]
number of axillary branches: marked and significant reduction in the number of axillary branches
